These molecules were tested against T1, GR22e/GR32a/GR66a (Drosophila melanogaster, UniProt P58953+Q9VKJ7+Q9VSH2) (assay: whole-cell patch clamp of S2 cells; tip recording of L-type sensilla misexpressing the receptors). Settings: agonist; S2 cells pH 7.4, room temperature, voltage ramp -80 to +80 mV; sensilla 1 mM.
T1 construct: full-length receptors co-expressed in Drosophila S2 cells (with EGFP) and in sweet GRNs via UAS/Gr64f-GAL4
T1 sequence (P58953 1-389): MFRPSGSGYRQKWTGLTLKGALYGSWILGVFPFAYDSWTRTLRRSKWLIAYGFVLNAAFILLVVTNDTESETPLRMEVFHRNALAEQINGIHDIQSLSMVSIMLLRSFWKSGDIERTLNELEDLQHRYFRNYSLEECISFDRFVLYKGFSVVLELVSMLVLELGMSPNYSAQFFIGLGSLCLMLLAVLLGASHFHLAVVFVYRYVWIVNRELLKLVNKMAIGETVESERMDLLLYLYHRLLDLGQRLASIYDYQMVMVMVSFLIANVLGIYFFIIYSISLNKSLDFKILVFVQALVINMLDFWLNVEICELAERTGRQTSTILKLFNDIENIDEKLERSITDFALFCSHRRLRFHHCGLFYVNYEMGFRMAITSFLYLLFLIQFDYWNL
T1 sequence (Q9VKJ7 1-461): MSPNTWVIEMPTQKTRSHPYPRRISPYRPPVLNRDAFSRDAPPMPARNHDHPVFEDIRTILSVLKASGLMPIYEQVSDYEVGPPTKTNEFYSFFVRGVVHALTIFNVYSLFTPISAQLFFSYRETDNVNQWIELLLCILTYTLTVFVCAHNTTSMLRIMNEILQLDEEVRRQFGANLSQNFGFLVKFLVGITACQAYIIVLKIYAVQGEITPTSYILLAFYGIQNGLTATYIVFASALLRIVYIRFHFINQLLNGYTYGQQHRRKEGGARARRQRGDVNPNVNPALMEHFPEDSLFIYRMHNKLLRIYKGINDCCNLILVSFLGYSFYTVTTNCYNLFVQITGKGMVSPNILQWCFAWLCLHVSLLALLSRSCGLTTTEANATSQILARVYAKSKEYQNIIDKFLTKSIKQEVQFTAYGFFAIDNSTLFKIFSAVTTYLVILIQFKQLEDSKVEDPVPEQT
T1 sequence (Q9VSH2 1-527): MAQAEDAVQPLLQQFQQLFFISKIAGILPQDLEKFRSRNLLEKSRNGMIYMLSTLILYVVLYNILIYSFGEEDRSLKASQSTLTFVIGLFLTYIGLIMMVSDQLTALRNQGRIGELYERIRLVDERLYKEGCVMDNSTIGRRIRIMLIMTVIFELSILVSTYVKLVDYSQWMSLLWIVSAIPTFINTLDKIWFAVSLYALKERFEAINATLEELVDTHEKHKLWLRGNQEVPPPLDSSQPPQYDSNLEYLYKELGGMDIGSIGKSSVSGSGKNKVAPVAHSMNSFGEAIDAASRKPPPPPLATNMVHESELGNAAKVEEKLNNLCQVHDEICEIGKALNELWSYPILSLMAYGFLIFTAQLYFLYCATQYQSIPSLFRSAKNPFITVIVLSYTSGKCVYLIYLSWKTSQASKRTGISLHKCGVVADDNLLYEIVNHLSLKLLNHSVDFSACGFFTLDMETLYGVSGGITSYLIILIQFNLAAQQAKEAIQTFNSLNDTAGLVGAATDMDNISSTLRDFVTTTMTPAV
Format: cell-based

| Structure (SMILES) | whole-cell patch clamp of S2 cells; tip recording of L-type sensilla misexpressi |
| --- | --- |
| COc1ccc2cc3[n+](cc2c1OC)CCc1cc2c(cc1-3)OCO2 [BER, berberine] | both Gr combinations confer sensitivity to LOB, BER, and DEN on S2 cells |
| CC[N+](CC)(CC(=O)Nc1c(C)cccc1C)Cc1ccccc1 [DEN, denatonium] | both Gr combinations confer sensitivity to LOB, BER, and DEN on S2 cells |
| CN1[C@@H](CC(=O)c2ccccc2)CCC[C@H]1C[C@H](O)c1ccccc1 [LOB, lobeline] | both Gr combinations confer sensitivity to LOB, BER, and DEN on S2 cells |
| O=C1C[C@@H]2OCC=C3CN4CC[C@]56c7ccccc7N1[C@H]5[C@H]2[C@H]3C[C@H]46 [STR, strychnine] | GR22e/GR32a/GR66a-expressing S2 cells also respond to STR |
